In patent publication US20260258009A1, “3-[(BENZO[D][1,3]DIOXOLANE-4-YL)OXY]PROPYLAMINE HYDROCHLORIDE, OPTICAL ISOMER AND CRYSTAL THEREOF, AND PREPARATION METHOD THEREFOR” (priority 2022, published 2026):
Where a name gives a salt, the structure may show the parent alone. Read-outs that look alike come from different tables or passages of the source.

Experiments:
[1] = Experiments of influencing factors (crystal form stability, XRPD); format: physicochemical; details: hydrochloride; for Crystal form after High temperature of 60° C. / Crystal form after Illumination of 5000 1x / Crystal form after High humidity of 92.5%: XRPD; for Crystal form stability (experimental conclusion): high temperature, high humidity, illumination, condition stated in the value; for Crystal form after Illumination of 5000 1x: photostability tester 5000 lx; for Crystal form after High humidity of 92.5%: relative humidity 92.5%
Method: High temperature experiment: About 1 g of the A, B, and C crystal forms were respectively weighed, placed in a clean watch glass, and placed at 60° C. for 10 days. The samples were taken on day 0, day 5, day 10, and day 30 for XRPD analysis.
High humidity experiment: About 1 g of the A, B, and C crystal form samples were respectively weighed, placed in a clean watch glass, and placed at a relative humidity of 92.5% for 10 days. The samples were taken on day 0, day 5, day 10, and day 30 for XRPD analysis.
Illumination experiment: About 1 g of the A, B, and C crystal form samples were respectively weighed, placed in a clean watch glass, laid flat, and placed in a photostability tester (the illumination was 5000 lx) for 10 days. The samples were taken on day 0, day 5, day 10, and day 30 for XRPD analysis.

[2] = Solubility experiment (HPLC, external standard method); format: physicochemical; details: thermodynamic from solid, Water, 20° C., overnight oscillation, read-out: Solubility
Method: The concentrated solution was placed in a 20° C. water bath thermostatic oscillator for overnight oscillation (supersaturation) and filtered. The filtrate was taken, 1 mL of which was precisely measured and placed in a 100 mL volumetric flask. A diluent (water) was added, the mixture was diluted to volume and mixed well, 1 mL of which was precisely measured and placed in a 10 mL volumetric flask. A diluent was added, the mixture was diluted to volume and mixed well as a test sample solution.
Control substance solution: A proper amount of 5 samples were respectively taken, precisely measured, dissolved in a proper amount of a diluent by ultrasonication, and diluted to give a solution containing about 0.1 mg of the sample per 1 mL. Two duplicate samples were prepared for each batch.
• (1) Preparation of buffer: About 2.6428 g ammonium sulfate was weighed and dissolved in 1000 mL of water. 2 mL of triethylamine was added, and the pH value was adjusted to 4.0 with dilute sulfuric acid. • (2) Preparation of mobile phase: Methanol-0.02 mol/L ammonium sulfate solution (2 mL triethylamine was added per 1000 mL, and the pH value was adjusted to 4.0 with dilute sulfuric acid) (45:55). 1000 mL was prepared, mixed well, filtered, and used after ultrasonic treatment.
Detection wavelength: 230 nm; flow rate: 1.0 mL/min; column temperature: 35° C.; sample injection volume: 20 μL; chromatographic column: Agilent Eclipse XDB-C18 chromatographic column (4.6×150 mm, 5 μm); mobile phase: methanol-0.02 mol/L ammonium sulfate solution (2 mL triethylamine was added per 1000 mL, and the pH value was adjusted to 4.0 with dilute sulfuric acid) (45:55).
20 μL of each solution was precisely measured, and injected separately into a liquid chromatograph. The chromatograms were recorded, and the solubility of the compounds was determined according to an external standard method.

[3] = Pharmacokinetic assay in beagle dogs; details: both, dog, in vivo, mean; for half-life: t1/2, beagle dogs
Method: Each group had six beagle dogs, half male and half female.
Preparation of solutions: • 1) Intravenous injection administration: 0.9% Normal saline was used as a vehicle. • 2) Oral administration: According to the dose of 10 mg/kg (based on base), a corresponding mass of the drug was weighed according to the actual weight of the animal, and then filled into a capsule to be administered to the animal.

ICR mice = test: Mouse forced swimming test; format: in vivo; details: for Immobility time: mice, 1 h after administration, mean±SD, n=12
Method: SPF grade ICR mice were taken. The animals were grouped by weight, 12 animals per group, and the animals were allowed to acclimate for at least 3 days before behavioural test.
The behavioural test was started 1 h after intragastric administration. The mice were placed in a transparent glass cylinder with water (water depth: 15 cm, water temperature: 23-25° C.) and video recorded for 6 min (the background was an LED light panel). At the end of the time, the mice were removed from the water and the next batch of mice was subjected to the behavioural test. Water was changed after every 3 batches of tests. After the test, the video of the behavioural test was derived and the cumulative immobility time of the mice 4 min after the 6 min forced swimming period was analyzed using the Forced Swim Scant 2.0 software.
The test results are expressed as mean±SD. Comparisons between each group and the vehicle group were conducted using the t-test. The differences were considered statistically significant when. P<0.05.

[4] = po, 1 mg/kg, beagle dogs, oral (capsule)

| Structure (SMILES) | Crystal form after High temperature of 60° C. ([1]; 5 days) | Crystal form after High temperature of 60° C. ([1]; 10 days) | Crystal form after High temperature of 60° C. ([1]; 30 days) | Crystal form stability (experimental conclusion) [1] | Crystal form after Illumination of 5000 1x ([1]; 5 days) | Crystal form after Illumination of 5000 1x ([1]; 10 days) | Crystal form after Illumination of 5000 1x ([1]; 30 days) | Crystal form after High humidity of 92.5% ([1]; 5 days) | Crystal form after High humidity of 92.5% ([1]; 10 days) | Crystal form after High humidity of 92.5% ([1]; 30 days) | also measured |
| --- | --- | --- | --- | --- | --- | --- | --- | --- | --- | --- | --- |
| CNCC[C@@H](Oc1cccc2c1OCO2)c1ccccc1.Cl [C crystal form, (R)—N-methyl-3-phenyl-3-[(benzo[d][1,3]dioxolan-4-yl)oxy]propylamine hydrochloride] | Crystal form C | Crystal form C | Crystal form C | converted into the A crystal form under the high humidity environment | Crystal form C | Crystal form C | Crystal form C | Crystal form A | Crystal form A | Crystal form A | – |
| CNCC[C@@H](Oc1cccc2c1OCO2)c1ccccc1.O=C(O)C(=O)O [(R)—N-methyl-3-phenyl-3-[(benzo[d][1,3]dioxolan-4-yl)oxy]propylamine oxalate, reference compound] | – | – | – | – | – | – | – | – | – | – | solubility [2]: 5100 µg/mL |
| CNCCC(Oc1cccc2c1OCO2)c1ccccc1.O=C(O)C(=O)O (stereo not shown) [N-methyl-3-phenyl-3-[(benzo[d][1,3]dioxolan-4-yl)oxy]propylamine oxalate] | – | – | – | – | – | – | – | – | – | – | AUC(0-t) ([3]; iv, 0.3 mg/kg, beagle dogs): 109 ng·h/mL; AUC(0-inf) ([3]; iv, 0.3 mg/kg, beagle dogs): 110 ng·h/mL; Cmax ([3]; iv, 0.3 mg/kg, beagle dogs): 71.6 ng/mL; Tmax ([3]; iv, 0.3 mg/kg, beagle dogs): 0.08 h; half-life ([3]; iv, 0.3 mg/kg): 1.93 h; AUC(0-t) [3, 4]: 78.7 ng·h/mL; AUC(0-inf) [3, 4]: 79.9 ng·h/mL; bioavailability ([3]; po, 1 mg/kg, Bioavailability, beagle dogs, oral 1 mg/kg vs intravenous 0.3 mg/kg): 21.8%; Cmax [3, 4]: 23.7 ng/mL; Tmax [3, 4]: 1.43 h; half-life ([3]; po, 1 mg/kg, oral (capsule)): 1.98 h; solubility ([2]; water, 20 °C, water): 6900 µg/mL |
| CNCC[C@H](Oc1cccc2ccccc12)c1cccs1 [Duloxetine hydrochloride, reference compound] | – | – | – | – | – | – | – | – | – | – | ED50 (ICR mice; Mus musculus, po, read-out: ED50 (median effective dose, FST-ED50)): 6.93 mg/kg; Immobility time (ICR mice; intragastric, 1.25 mg/kg): 135.1 ± 49.2 s; Immobility time (ICR mice; intragastric, 2.5 mg/kg): 154.9 ± 76.0 s; Immobility time (ICR mice; intragastric, 5 mg/kg): 104.9 ± 51.5 s; Immobility time (ICR mice; intragastric, 20 mg/kg): 29.9 ± 45.4 s; Immobility time (ICR mice; intragastric, 40 mg/kg): 10.6 ± 17.3 s; minimum effective dose (MED) (ICR mice; mouse forced swimming, intragastric): 5 mg/kg |
| CNCC[C@@H](Oc1cccc2c1OCO2)c1ccccc1.Cl [B crystal form, (R)—N-methyl-3-phenyl-3-[(benzo[d][1,3]dioxolan-4-yl)oxy]propylamine hydrochloride] | Crystal form A + B | Crystal form A + B | Crystal form A + B | converted into a mixed crystal of the crystal forms A and B under the high temperature and high humidity environment | Crystal form B | Crystal form B | Crystal form B | Crystal form A + B | Crystal form A + B | Crystal form A + B | – |
